Results reported in patent US8946238B2, “Pyrazolo[1,5-A]pyrimidines as antiviral agents” (Gilead Sciences, Inc., priority 2011, dated 2015).

system: RSV strain A2; assay: RSV antiviral cytoprotection assay in Hep2 cells (RSV-induced cytopathic effect, Cell TiterGlo); assay type: cell-based, Respiratory Syncytial Virus (RSV); settings: 0.5 μM compound; RSV A2-infected Hep2 cells; % inhibition calculated from 4-parameter dose response curve, normalized to 0% and 100%; 0.5 µM
Procedure, shortened: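 Hep2 cells were infected with RSV A2 and exposed to 3-fold compound dilutions, either 3,000 cells/well for 4 days (96-well) or 2000 cells/well at MOI 1:1000 for 5 days at 37° C. (384-well). Cytopathic effect was read by Cell TiterGlo luminescence, and EC50 or normalized % inhibition came from curve fits against infected and uninfected controls.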

| SMILES | Percent inhibition at 0.5 μM |
| --- | --- |
| Cc1cccnc1C(=O)N1CCCC[C@H]1c1cc2nc(N3C[C@@H](C#N)[C@@H](O)C3)c(C)cn2n1 [Compound 179] | 93% |

same assay, conditions: human respiratory syncytial virus, HEp-2, 0.5 μM compound; RSV A2-infected Hep2 cells; % inhibition calculated from 4-parameter dose response curve, normalized to 0% and 100%; read-out: Percent inhibition at 0.5 μM

| SMILES | inhibition at 0.5 µM |
| --- | --- |
| Cc1cn2nc([C@@H]3CCCCN3C(=O)c3cc(I)ccn3)cc2nc1N1C[C@@H](C#N)[C@@H](O)C1 [Compound 161] | 61% |
| Cc1cn2nc([C@@H]3CCCCN3C(=O)c3cccc4c3CCCC4)cc2nc1N1C[C@@H](C#N)[C@@H](O)C1 [Compound 162] | 100% |
| Cc1cn2nc([C@@H]3CCCCN3C(=O)c3nccc4ccccc34)cc2nc1N1C[C@@H](C#N)[C@@H](O)C1 [Compound 163] | 100% |
| COc1cccc(C(=O)N2CCCC[C@H]2c2cc3nc(N4C[C@@H](C#N)[C@@H](O)C4)c(C)cn3n2)c1C [Compound 165] | 92% |
| COc1cc(C)c(C(=O)N2CCCC[C@H]2c2cc3nc(N4C[C@@H](C#N)[C@@H](O)C4)c(C)cn3n2)cc1C [Compound 167] | 100% |
| Cc1cn2nc([C@@H]3CCCCN3C(=O)c3cc(C(F)(F)F)ccn3)cc2nc1N1C[C@@H](C#N)[C@@H](O)C1 [Compound 168] | 44% |
| Cc1cn2nc([C@@H]3CCCCN3C(=O)c3cccc(C)c3C)cc2nc1N1C[C@@H](C#N)[C@@H](O)C1 [Compound 169] | 100% |
| Cc1ccc(Cl)c(C(=O)N2CCCC[C@H]2c2cc3nc(N4C[C@@H](C#N)[C@@H](O)C4)c(C)cn3n2)c1 [Compound 170] | 100% |
| Cc1ccc(Br)c(C(=O)N2CCCC[C@H]2c2cc3nc(N4C[C@@H](C#N)[C@@H](O)C4)c(C)cn3n2)c1 [Compound 171] | 100% |
| Cc1cn2nc([C@@H]3CCCCN3C(=O)c3cccc(F)c3C)cc2nc1N1C[C@@H](C#N)[C@@H](O)C1 [Compound 172] | 100% |
| COc1cc(C)ccc1C(=O)N1CCCC[C@H]1c1cc2nc(N3C[C@@H](C#N)[C@@H](O)C3)c(C)cn2n1 [Compound 173] | 98% |
| COc1cc2ccccc2cc1C(=O)N1CCCC[C@H]1c1cc2nc(N3C[C@@H](C#N)[C@@H](O)C3)c(C)cn2n1 [Compound 174] | 58% |
| Cc1cn2nc([C@@H]3CCCCN3C(=O)c3cccc4n[nH]cc34)cc2nc1N1C[C@@H](C#N)[C@@H](O)C1 [Compound 175] | 91% |
| Cc1cccc(C(=O)N2CCCC[C@H]2c2cc3nc(N4C[C@@H](C#N)[C@@H](O)C4)c(C)cn3n2)n1 [Compound 176] | 97% |
| Cc1cn2nc([C@@H]3CCCCN3C(=O)c3ccc(Cl)c(Cl)c3)cc2nc1N1C[C@@H](C#N)[C@@H](O)C1 [Compound 177] | 99% |
| COc1ccsc1C(=O)N1CCCC[C@H]1c1cc2nc(N3C[C@@H](C#N)[C@@H](O)C3)c(C)cn2n1 [Compound 178] | 100% |
| Cc1cn2nc([C@@H]3CCCCN3C(=O)c3ccccc3-c3ccccc3)cc2nc1N1C[C@@H](C#N)[C@@H](O)C1 [Compound 180] | 94% |
| Cc1cn2nc([C@@H]3CCCCN3C(=O)c3ccsc3)cc2nc1N1C[C@@H](C#N)[C@@H](O)C1 [Compound 181] | 83% |
| Cc1cn2nc([C@@H]3CCCCN3C(=O)c3c(Cl)c(C)nn3C)cc2nc1N1C[C@@H](C#N)[C@@H](O)C1 [Compound 182] | 93% |
| Cc1cn2nc([C@@H]3CCCCN3C(=O)c3csc4c3CCCC4)cc2nc1N1C[C@@H](C#N)[C@@H](O)C1 [Compound 183] | 100% |

| SMILES | inhibition at 0.5 µM |
| --- | --- |
| Cc1cn2nc([C@@H]3CCCCN3C(=O)c3ccccc3C(F)(F)F)cc2nc1N1C[C@@H](C#N)[C@@H](O)C1 [Compound 184] | 100% |
| Cc1cn2nc([C@@H]3CCCCN3C(=O)c3cccc4c3ccn4C)cc2nc1N1C[C@@H](C#N)[C@@H](O)C1 [Compound 185] | 100% |
| Cc1cn2nc([C@@H]3CCCCN3C(=O)c3cc(F)ccc3Cl)cc2nc1N1C[C@@H](C#N)[C@@H](O)C1 [Compound 186] | 100% |
| Cc1cn2nc([C@@H]3CCCCN3C(=O)c3nn(C)c4ccccc34)cc2nc1N1C[C@@H](C#N)[C@@H](O)C1 [Compound 187] | 100% |
| COc1ccc(Cl)c(C(=O)N2CCCC[C@H]2c2cc3nc(N4C[C@@H](C#N)[C@@H](O)C4)c(C)cn3n2)c1 [Compound 188] | 100% |
| Cc1cn2nc([C@@H]3CCCCN3C(=O)c3ccnn3CC(F)(F)F)cc2nc1N1C[C@@H](C#N)[C@@H](O)C1 [Compound 189] | 89% |
| Cc1cn2nc([C@@H]3CCCCN3C(=O)c3c(Cl)cnn3C(C)C)cc2nc1N1C[C@@H](C#N)[C@@H](O)C1 [Compound 190] | 100% |
| Cc1cn2nc([C@@H]3CCCCN3C(=O)c3cc(Cl)ccc3NS(C)(=O)=O)cc2nc1N1C[C@@H](C#N)[C@@H](OP(=O)(O)O)C1 [Compound 192] | 100% |
| Cc1ccnc(C(=O)N2CCCC[C@H]2c2cc3nc(N4CC(C#N)[C@@H](O)C4)c(C)cn3n2)c1 (stereo partly drawn) [Compound 196] | 96% |
| Cc1ccc(N2CCCS2(=O)=O)c(C(=O)N2CCCC[C@H]2c2cc3nc(N4C[C@@H](C#N)[C@@H](O)C4)c(C)cn3n2)c1 [Compound 197] | 100% |
| Cc1cn2nc([C@@H]3CCCCN3C(=O)c3cc(Br)ccc3NS(C)(=O)=O)cc2nc1N1C[C@@H](C#N)[C@@H](O)C1 [Compound 199] | 100% |
| COc1ccc(Cl)cc1C(=O)N1CCCC[C@H]1c1cc2nc(N3C[C@@H](C#N)[C@@H](O)C3)c(C)cn2n1 [Compound 201] | 100% |
| Cc1ccc(Cl)cc1C(=O)N1CCCC[C@H]1c1cc2nc(N3C[C@@H](C#N)[C@@H](O)C3)c(C)cn2n1 [Compound 202] | 100% |
| CC(=O)Nc1ccc(C)cc1C(=O)N1CCCC[C@H]1c1cc2nc(N3CC(O)C(C#N)C3)c(C)cn2n1 (stereo partly drawn) [Compound 203] | 100% |
| Cc1cn2nc([C@@H]3CCCCN3C(=O)c3cc(Cl)ccc3NS(C)(=O)=O)cc2nc1N1C[C@@H](C#N)[C@@H](OC(=O)[C@H](N)C(C)C)C1 [Compound 204] | 100% |
| Cc1cn2nc([C@@H]3CCCCN3C(=O)c3cc(Cl)ccc3NS(C)(=O)=O)cc2nc1N1C[C@@H](C#N)[C@@H](OC(=O)[C@H]2CCCN2)C1 [Compound 205] | 100% |
| Cc1cn2nc([C@@H]3CCCCN3C(=O)c3cc(Cl)ccc3NS(C)(=O)=O)cc2nc1N1C[C@@H](C#N)[C@@H](OC(=O)CN)C1 [Compound 206] | 100% |
| Cc1cn2nc([C@@H]3CCCCN3C(=O)c3cc(Cl)ccc3NS(C)(=O)=O)cc2nc1N1C[C@@H](C#N)[C@@H](OC(=O)CCC(=O)O)C1 [Compound 207] | 100% |
| Cc1cn2nc([C@@H]3CCCCN3C(=O)c3cc(Cl)ccc3NS(C)(=O)=O)cc2nc1N1C[C@@H](C#N)[C@@H](OC(=O)c2cccnc2)C1 [Compound 208] | 100% |
| Cc1cn2nc([C@@H]3CCCCN3C(=O)c3cc(Cl)ccc3NS(C)(=O)=O)cc2nc1N1C[C@@H](C#N)[C@@H](OC(=O)CCC(=O)NCCN2CCOCC2)C1 [Compound 209] | 100% |

same assay, conditions: human respiratory syncytial virus, HEp-2, read-out: Percent inhibition at 0.5 μM

| SMILES | inhibition at 0.5 µM |
| --- | --- |
| Cc1ccc(NS(C)(=O)=O)c(C(=O)N2CCCC[C@H]2c2cc3nc(N4C[C@@H](C#N)[C@@H](O)C4)c(C)cn3n2)c1 [Compound 200] | 100% |
